# pIC50: −log10 of the molar value.
# Tests used:
# CYP2C19 = CYP2C19 (Homo sapiens, UniProt P33261); test: Inhibition of CYP2C19 at 10 uM; type: ADME
# [1] = biological target: Mitogen-activated protein kinase 1 (Homo sapiens) (UniProt P28482); test: Inhibition of human MAPK2/ERK2 at 10 uM
# [2] = biological target: Mitogen-activated protein kinase 9 (Homo sapiens) (UniProt P45984); test: Inhibition of human JNK2alpha2 at 10 uM
# Homo sapiens [3] = species: Homo sapiens; test: Inhibition of human JNK1-alpha-1/SAPK1c at 10 uM
# CYP1A2 = biological target: T1, CYP1A2 (Homo sapiens, UniProt P05177); test: Inhibition of CYP1A2 at 10 uM; type: ADME
# T1 sequence (P05177 whole entry): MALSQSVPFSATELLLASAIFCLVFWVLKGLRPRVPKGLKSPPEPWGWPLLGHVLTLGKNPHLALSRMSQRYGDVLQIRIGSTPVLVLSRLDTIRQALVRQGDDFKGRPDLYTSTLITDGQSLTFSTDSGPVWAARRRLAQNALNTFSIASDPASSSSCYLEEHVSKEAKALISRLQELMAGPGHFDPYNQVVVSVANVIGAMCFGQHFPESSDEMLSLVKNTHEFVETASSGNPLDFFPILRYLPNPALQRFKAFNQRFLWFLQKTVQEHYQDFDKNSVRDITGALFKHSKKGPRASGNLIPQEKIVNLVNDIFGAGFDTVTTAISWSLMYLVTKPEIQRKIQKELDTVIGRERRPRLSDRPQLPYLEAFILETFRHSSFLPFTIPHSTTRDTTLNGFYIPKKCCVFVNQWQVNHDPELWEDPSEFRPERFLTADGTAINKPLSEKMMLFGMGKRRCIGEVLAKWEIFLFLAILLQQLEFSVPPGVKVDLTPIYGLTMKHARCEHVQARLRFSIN
# [4] = biological target: Protein kinase C alpha type (Homo sapiens) (UniProt P17252); test: Inhibition of human PKCalpha at 10 uM
# [5] = biological target: Mitogen-activated protein kinase 10 (Homo sapiens) (UniProt P53779); test: Inhibition of human JNK3 at 10 uM
# [6] = biological target: RAC-alpha serine/threonine-protein kinase (Homo sapiens) (UniProt P31749); test: Inhibition of human PKBalpha at 10 uM
# [7] = biological target: Rho-associated protein kinase 2 (Homo sapiens) (UniProt O75116); test: Inhibition of human ROCK2 at 10 uM
# Blood [8] = test: Inhibition of IL1-beta release in human whole blood; type: functional, tissue-based
# [9] = biological target: RAF proto-oncogene serine/threonine-protein kinase (Homo sapiens) (UniProt P04049); test: Inhibition of human c-RAF at 10 uM
# [10] = biological target: Glycogen synthase kinase-3 beta (Homo sapiens) (UniProt P49841); test: Inhibition of human GSK3-beta at 10 uM
# [11] = biological target: Mitogen-activated protein kinase 3 (Homo sapiens) (UniProt P27361); test: Inhibition of human ERK1 at 10 uM
# [12] = biological target: T2, Mitogen-activated protein kinase 14 (Homo sapiens, UniProt Q16539); test: Inhibition of p38alpha
# CYP3A4 = CYP3A4 (Homo sapiens, UniProt P08684); test: Inhibition of CYP3A4 at 10 uM; type: ADME
# Blood [13] = test: Inhibition of TNFalpha release in human whole blood; type: functional, tissue-based
# [14] = biological target: Dual specificity mitogen-activated protein kinase kinase 1 (Homo sapiens) (UniProt Q02750); test: Inhibition of human MEK1 at 10 uM
# CYP2D6 = CYP2D6 (Homo sapiens, UniProt P10635); test: Inhibition of CYP2D6 at 10 uM; type: ADME
# Homo sapiens [15] = species: Homo sapiens; test: Inhibition of human PKA at 10 uM
# Homo sapiens [16] = species: Homo sapiens; test: Inhibition of human CAMK2 at 10 uM
# [17] = biological target: T2, Mitogen-activated protein kinase 14; details: at 10 µM
# [18] = biological target: Tyrosine-protein kinase Lck (Homo sapiens) (UniProt P06239); test: Inhibition of human LCK at 10 uM
# CYP2C9 = CYP2C9 (Homo sapiens, UniProt P11712); test: Inhibition of CYP2C9 at 10 uM; type: ADME
# [19] = Inhibition of p38 MAPK
# CYP2C9, sequence (P11712 whole entry): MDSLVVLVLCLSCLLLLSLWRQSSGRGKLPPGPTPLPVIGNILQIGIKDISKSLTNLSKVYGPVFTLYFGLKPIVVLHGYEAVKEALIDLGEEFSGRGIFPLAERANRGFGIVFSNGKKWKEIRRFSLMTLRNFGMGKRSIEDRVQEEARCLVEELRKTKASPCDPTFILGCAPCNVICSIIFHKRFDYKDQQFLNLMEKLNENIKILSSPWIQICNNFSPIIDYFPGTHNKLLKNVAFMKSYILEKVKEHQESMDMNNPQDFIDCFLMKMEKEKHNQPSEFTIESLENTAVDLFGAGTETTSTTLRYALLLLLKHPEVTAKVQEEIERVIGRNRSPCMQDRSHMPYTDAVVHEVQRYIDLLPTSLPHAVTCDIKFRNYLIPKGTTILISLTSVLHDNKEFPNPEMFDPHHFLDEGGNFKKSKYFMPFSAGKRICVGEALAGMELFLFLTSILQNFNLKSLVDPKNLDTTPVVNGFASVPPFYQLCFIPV
# Dual specificity mitogen-activated protein kinase kinase 1 (Homo sapiens), sequence (Q02750 whole entry): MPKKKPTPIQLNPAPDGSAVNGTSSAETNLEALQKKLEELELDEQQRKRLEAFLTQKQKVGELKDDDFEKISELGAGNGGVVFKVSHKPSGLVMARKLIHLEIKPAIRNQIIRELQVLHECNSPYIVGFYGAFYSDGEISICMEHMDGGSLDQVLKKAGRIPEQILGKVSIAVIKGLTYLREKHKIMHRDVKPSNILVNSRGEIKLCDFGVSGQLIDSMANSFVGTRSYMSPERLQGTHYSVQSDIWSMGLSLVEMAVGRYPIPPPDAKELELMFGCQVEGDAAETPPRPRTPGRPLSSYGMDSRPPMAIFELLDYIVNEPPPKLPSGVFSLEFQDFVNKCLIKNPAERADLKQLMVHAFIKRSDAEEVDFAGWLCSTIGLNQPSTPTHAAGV
# CYP2C19, sequence (P33261 whole entry): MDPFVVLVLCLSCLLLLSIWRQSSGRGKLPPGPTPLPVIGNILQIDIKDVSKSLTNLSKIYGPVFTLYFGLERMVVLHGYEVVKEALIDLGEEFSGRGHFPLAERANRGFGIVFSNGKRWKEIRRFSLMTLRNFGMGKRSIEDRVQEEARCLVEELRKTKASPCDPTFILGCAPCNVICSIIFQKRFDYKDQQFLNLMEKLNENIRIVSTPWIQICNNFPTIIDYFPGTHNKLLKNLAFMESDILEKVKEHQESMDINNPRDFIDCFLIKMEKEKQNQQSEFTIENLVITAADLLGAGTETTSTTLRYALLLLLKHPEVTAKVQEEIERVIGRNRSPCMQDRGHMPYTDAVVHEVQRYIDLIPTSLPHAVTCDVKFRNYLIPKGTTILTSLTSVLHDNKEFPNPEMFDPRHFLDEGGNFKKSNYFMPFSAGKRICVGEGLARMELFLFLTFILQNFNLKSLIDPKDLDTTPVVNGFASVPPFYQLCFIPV
# CYP2D6, sequence (P10635 whole entry): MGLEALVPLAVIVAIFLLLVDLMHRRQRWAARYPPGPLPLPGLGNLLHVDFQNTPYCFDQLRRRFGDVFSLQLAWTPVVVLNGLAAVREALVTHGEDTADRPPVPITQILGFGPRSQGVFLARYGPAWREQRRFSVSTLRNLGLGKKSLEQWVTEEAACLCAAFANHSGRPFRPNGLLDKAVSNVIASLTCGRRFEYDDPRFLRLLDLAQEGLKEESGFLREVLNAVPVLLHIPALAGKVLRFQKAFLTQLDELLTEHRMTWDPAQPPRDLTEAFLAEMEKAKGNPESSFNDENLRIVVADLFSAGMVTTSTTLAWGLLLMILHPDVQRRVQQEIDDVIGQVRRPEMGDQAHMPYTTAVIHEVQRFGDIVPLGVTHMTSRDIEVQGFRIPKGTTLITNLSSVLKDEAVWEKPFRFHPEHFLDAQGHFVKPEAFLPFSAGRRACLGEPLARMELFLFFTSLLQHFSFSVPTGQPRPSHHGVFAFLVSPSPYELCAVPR
# T2 sequence (Q16539 whole entry): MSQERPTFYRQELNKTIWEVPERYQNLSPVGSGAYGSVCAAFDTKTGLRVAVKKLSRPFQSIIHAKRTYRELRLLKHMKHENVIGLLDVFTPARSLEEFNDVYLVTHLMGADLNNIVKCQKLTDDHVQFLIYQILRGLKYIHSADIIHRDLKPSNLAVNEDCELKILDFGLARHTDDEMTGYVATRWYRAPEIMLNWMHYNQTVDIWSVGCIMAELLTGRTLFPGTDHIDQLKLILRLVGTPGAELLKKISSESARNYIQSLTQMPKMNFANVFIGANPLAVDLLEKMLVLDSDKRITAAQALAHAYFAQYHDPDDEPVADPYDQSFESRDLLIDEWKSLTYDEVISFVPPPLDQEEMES
# CYP3A4, sequence (P08684 whole entry): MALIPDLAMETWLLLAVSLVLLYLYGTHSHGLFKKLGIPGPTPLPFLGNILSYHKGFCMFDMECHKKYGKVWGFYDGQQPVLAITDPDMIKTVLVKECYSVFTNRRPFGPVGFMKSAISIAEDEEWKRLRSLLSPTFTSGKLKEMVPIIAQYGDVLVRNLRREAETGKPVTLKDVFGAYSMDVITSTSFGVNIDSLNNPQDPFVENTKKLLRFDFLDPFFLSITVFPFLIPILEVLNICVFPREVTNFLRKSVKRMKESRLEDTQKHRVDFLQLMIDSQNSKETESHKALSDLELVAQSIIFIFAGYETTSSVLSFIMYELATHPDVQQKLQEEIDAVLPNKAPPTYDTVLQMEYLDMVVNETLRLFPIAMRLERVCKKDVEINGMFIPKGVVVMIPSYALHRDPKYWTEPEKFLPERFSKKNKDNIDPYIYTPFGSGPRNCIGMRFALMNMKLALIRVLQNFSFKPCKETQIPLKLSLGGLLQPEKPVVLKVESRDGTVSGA
# RAF proto-oncogene serine/threonine-protein kinase (Homo sapiens), sequence (P04049 whole entry): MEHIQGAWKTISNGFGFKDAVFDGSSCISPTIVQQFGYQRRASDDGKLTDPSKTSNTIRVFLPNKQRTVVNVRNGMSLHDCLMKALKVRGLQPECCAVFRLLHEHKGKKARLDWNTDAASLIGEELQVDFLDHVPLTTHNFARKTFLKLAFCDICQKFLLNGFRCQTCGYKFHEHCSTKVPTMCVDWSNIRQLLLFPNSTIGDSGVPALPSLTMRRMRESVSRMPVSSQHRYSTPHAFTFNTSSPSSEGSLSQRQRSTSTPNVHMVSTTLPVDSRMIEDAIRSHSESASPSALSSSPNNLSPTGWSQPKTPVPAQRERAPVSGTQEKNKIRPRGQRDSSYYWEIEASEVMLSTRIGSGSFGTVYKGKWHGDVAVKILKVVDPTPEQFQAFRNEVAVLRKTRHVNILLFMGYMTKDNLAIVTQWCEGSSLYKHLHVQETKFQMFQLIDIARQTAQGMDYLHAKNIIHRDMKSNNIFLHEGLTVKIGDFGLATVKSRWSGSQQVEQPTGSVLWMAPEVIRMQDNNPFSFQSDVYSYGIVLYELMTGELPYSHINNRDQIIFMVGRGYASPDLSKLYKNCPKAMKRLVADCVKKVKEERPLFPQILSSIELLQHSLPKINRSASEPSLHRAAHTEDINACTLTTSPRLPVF
# Mitogen-activated protein kinase 9 (Homo sapiens), sequence (P45984 whole entry, looked up): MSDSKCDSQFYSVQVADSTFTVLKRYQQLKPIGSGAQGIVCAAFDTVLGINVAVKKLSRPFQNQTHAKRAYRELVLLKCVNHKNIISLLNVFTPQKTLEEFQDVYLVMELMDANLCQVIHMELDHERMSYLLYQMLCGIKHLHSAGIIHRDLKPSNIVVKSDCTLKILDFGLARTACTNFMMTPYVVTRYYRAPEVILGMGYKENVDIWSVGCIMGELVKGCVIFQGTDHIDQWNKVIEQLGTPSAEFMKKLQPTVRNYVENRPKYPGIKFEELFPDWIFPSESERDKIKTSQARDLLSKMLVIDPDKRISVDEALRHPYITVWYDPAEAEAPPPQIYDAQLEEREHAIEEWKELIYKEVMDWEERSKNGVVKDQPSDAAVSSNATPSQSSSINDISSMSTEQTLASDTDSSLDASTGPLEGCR
# Mitogen-activated protein kinase 3 (Homo sapiens), sequence (P27361 whole entry): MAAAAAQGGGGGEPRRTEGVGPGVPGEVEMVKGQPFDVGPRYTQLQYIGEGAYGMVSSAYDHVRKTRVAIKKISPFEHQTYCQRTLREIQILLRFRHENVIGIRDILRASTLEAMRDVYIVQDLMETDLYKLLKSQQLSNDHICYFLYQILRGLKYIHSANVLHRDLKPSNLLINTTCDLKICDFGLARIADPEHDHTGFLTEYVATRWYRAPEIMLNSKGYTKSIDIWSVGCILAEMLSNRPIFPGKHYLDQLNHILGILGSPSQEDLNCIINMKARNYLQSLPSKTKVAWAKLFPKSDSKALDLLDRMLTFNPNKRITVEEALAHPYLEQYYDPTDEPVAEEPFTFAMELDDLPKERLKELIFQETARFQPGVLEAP
# Glycogen synthase kinase-3 beta (Homo sapiens), sequence (P49841 whole entry, looked up): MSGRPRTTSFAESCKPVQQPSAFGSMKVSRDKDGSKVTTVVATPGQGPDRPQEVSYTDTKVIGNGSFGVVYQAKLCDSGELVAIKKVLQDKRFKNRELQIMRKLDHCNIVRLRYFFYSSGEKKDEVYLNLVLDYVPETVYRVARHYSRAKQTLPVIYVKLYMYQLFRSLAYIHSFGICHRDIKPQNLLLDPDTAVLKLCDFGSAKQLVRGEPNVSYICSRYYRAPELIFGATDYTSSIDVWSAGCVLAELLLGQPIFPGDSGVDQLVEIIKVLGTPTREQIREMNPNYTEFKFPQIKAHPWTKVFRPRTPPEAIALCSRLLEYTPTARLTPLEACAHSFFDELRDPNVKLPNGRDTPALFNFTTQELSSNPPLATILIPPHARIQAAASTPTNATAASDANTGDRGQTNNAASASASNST
Structure (SMILES),inhibition at 10 µM (CYP2C19),inhibition [1],inhibition [2],inhibition (Homo sapiens [3]),inhibition at 10 µM (CYP1A2),inhibition [4],inhibition [5],inhibition [6],inhibition [7],pIC50 (Blood [8]),inhibition [9],inhibition [10],inhibition [11],pIC50 [12],inhibition at 10 µM (CYP3A4),pIC50 (Blood [13]),inhibition [14],inhibition at 10 µM (CYP2D6),inhibition (Homo sapiens [15]),pIC50 [19],further results
CSc1nc(-c2ccc(F)cc2)c(-c2ccnc(NCCc3cccs3)c2)[nH]1,94%,31%,90%,72%,83%,0%,99%,1%,0%,4.63,53%,1%,46%,7.64,89%,4.84,1%,88%,4%,,inhibition (Homo sapiens [16]): 0%; inhibition [17]: 99%; inhibition [18]: 28%; inhibition at 10 µM (CYP2C9): 93%
CSc1nc(-c2ccc(F)cc2)c(-c2ccnc(NC(C)CCCC(C)C)c2)[nH]1 (stereo unspecified),84%,6%,91%,86%,23%,0%,99%,6%,0%,5.12,7%,0%,28%,7.70,71%,5.40,2%,66%,0%,,inhibition (Homo sapiens [16]): 0%; inhibition [17]: 94%; inhibition [18]: 47%; inhibition at 10 µM (CYP2C9): 76%
C[S+]([O-])c1ccc(CSc2nc(-c3ccc(F)cc3)c(-c3ccncc3)[nH]2)cc1 (stereo unspecified),,,,,,,,,,6.42,,,,,,5.96,,,,8.40,
CSc1nc(-c2ccc(F)cc2)c(-c2ccncc2)[nH]1,,,,,,,,,,7.36,,,,,,5.06,,,,6.20,
CSc1nc(-c2ccc(F)cc2)c(-c2ccnc(NCC3CCCO3)c2)[nH]1 (stereo unspecified),51%,8%,86%,46%,70%,0%,96%,12%,0%,6.60,0%,10%,18%,7.46,52%,6.29,20%,22%,1%,,inhibition (Homo sapiens [16]): 61%; inhibition [17]: 95%; inhibition [18]: 26%; inhibition at 10 µM (CYP2C9): 47%
CSc1nc(-c2ccc(F)cc2)c(-c2ccnc(NC(C)CCc3ccccc3)c2)[nH]1 (stereo unspecified),89%,17%,94%,88%,38%,0%,99%,5%,0%,5.63,19%,0%,32%,7.89,95%,6.46,3%,78%,0%,,inhibition (Homo sapiens [16]): 0%; inhibition [17]: 97%; inhibition [18]: 30%; inhibition at 10 µM (CYP2C9): 88%
CSc1nc(-c2ccc(F)cc2)c(-c2ccnc(NC(C)c3ccccc3)c2)n1C (stereo unspecified),,,,,,,,,,5.39,,,,,,5.52,,,,6.66,
Clc1ccc(-c2nc(-c3ccccc3)[nH]c2-c2ccncc2)cc1,,,,,,,,,,,,,,,,,,,,7.32,
FC(F)(F)c1cccc(-c2nc(-c3ccccc3)[nH]c2-c2ccncc2)c1,,,,,,,,,,,,,,,,,,,,7.07,
CSc1nc(-c2ccc(F)cc2)c(-c2ccnc(NC(C)c3ccccc3)c2)[nH]1 (stereo unspecified),,,,,,,,,,5.36,,,,,,5.36,,,,6.42,
